Measurements as given in patent US20250346593A1, “IMIDAZO(1,2-1)PYRIDINE DERIVATIVES AS RIPK2 INHIBITORS” (Interline Therapeutics, Inc., priority 2022, published 2025).
Where two headings read alike, the source gives them in different places.

Columns and labels:
[1] = system: NF-κB pathway (SEAP) in THP1-Dual cells; assay: THP-1 Dual cell SEAP assay (L18-MDP stimulated); format: cell-based; settings: read-out: NFkB THP1 IC50
[2] = biological target: GST-RIPK2 fusion protein (human RIPK2 amino acids 1-310) (Homo sapiens (Human), UniProt O43353); assay: RIPK2 binding competition assay (TR-FRET, Tracer 199)
Sequence of GST-RIPK2 fusion protein (human RIPK2 amino acids 1-310) (O43353 1-310): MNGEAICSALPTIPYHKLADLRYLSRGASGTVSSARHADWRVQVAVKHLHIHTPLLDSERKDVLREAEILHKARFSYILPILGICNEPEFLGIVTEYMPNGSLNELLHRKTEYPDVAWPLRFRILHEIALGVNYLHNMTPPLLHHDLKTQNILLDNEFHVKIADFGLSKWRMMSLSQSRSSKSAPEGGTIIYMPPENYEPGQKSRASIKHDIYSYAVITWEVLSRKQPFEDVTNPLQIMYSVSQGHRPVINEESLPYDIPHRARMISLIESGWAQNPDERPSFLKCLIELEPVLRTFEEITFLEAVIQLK

Structure (SMILES) | IC50 ([1]; Homo sapiens, THP1-Dual) [nM] | IC50 [2] [nM] | IC50 [1] [nM] | IC50 ([2]; read-out: RIPK2 IC50, RIPK2 binding competition assay) [nM]
COc1cc2ncc(-c3cc(C#N)c(OC)c(NS(C)(=O)=O)c3)n2cc1S(=O)(=O)C(C)(C)C [Example 260, N-(5-(6-(tert-butylsulfonyl)-7-methoxyimidazo[1,2-a]pyridin-3-yl)-3-cyano-2-methoxyphenyl)methane-sulfonamide] | > 1000 | 2.5 to 20 | – | –
COc1cc2ncc(-c3cccc(NS(C)(=O)=O)c3)n2cc1S(=O)(=O)C(C)(C)C [Example 261, N-(3-(6-(tert-butylsulfonyl)-7-methoxyimidazo[1,2-a]pyridin-3-yl)phenyl)methanesulfon-amide] | > 1000 | 2.5 to 20 | – | –
COc1cc(-c2cnc3cc(OC)c(S(=O)(=O)C(C)(C)C)cn23)cc(NS(C)(=O)=O)n1 [Example 264, N-(4-(6-(tert-butylsulfonyl)-7-methoxyimidazo[1,2-a]pyridin-3-yl)-6-methoxypyridin-2-yl)methanesulfonamide] | 250 to 1000 | 2.5 to 20 | – | –
COc1cc2ncc(-c3cc(F)c(OC)c(NS(C)(=O)=O)c3)n2cc1S(=O)(=O)C(C)(C)C [Example 272, N-(5-(6-(tert-butylsulfonyl)-7-methoxyimidazo[1,2-a]pyridin-3-yl)-3-fluoro-2-methoxyphenyl)methane-sulfonamide] | 50 to 250 | 1 to 2.5 | – | –
CCS(=O)(=O)Nc1cccc(-c2cnc3cc(OC)c(S(=O)(=O)C(C)(C)C)cn23)c1 [Example 276, N-(3-(6-(tert-butylsulfonyl)-7-methoxyimidazo[1,2-a]pyridin-3-yl)phenyl)ethanesulfon-amide] | – | – | 250 to 1000 | 2.5 to 20
COc1cc2ncc(-c3cccc(NS(=O)(=O)C(C)C)c3)n2cc1S(=O)(=O)C(C)(C)C [Example 278, N-(3-(6-(tert-butylsulfonyl)-7-methoxyimidazo[1,2-a]pyridin-3-yl)phenyl)propane-2-sulfonamide] | 250 to 1000 | 2.5 to 20 | – | –
COc1cc2ncc(-c3cccc(NS(=O)(=O)CC(C)C)c3)n2cc1S(=O)(=O)C(C)(C)C [Example 280, N-(3-(6-(tert-butylsulfonyl)-7-methoxyimidazo[1,2-a]pyridin-3-yl)phenyl)-2-methylpropane-1-sulfonamide] | 250 to 1000 | 1 to 2.5 | – | –
CCCS(=O)(=O)Nc1cc(-c2cnn3ccc(S(=O)(=O)C(C)(C)C)cc23)ccc1OC [Example 281, N-(5-(5-(tert-butylsulfonyl)pyrazolo[1,5-a]pyridin-3-yl)-2-methoxyphenyl)propane-1-sulfonamide] | 250 to 1000 | 2.5 to 20 | – | –
CCCS(=O)(=O)Nc1cc(C#N)cc(-c2cnc3cc(OC)c(S(=O)(=O)C(C)(C)C)cn23)c1 [Example 282, N-(3-(6-(tert-butylsulfonyl)-7-methoxyimidazo[1,2-a]pyridin-3-yl)-5-cyanophenyl)propane-1-sulfonamide] | > 1000 | 2.5 to 20 | – | –

Second part, the compound after the results:

IC50 ([1]; Homo sapiens, THP1-Dual) [nM] | IC50 [2] [nM] | IC50 [1] [nM] | IC50 ([2]; read-out: RIPK2 IC50, RIPK2 binding competition assay) [nM] | Structure (SMILES)
250 to 1000 | 2.5 to 20 | – | – | CCCS(=O)(=O)Nc1cc(-c2cnc3cc(OC)c(S(=O)(=O)C(C)(C)C)cn23)cc(F)c1C [Example 262, N-(5-(6-(tert-butylsulfonyl)-7-methoxyimidazo[1,2-a]pyridin-3-yl)-3-fluoro-2-methylphenyl)propane-1-sulfonamide]
250 to 1000 | 2.5 to 20 | – | – | CCCS(=O)(=O)Nc1c(F)c(-c2cnc3cc(OC)c(S(=O)(=O)C(C)(C)C)cn23)cc(F)c1OC [Example 263, N-(3-(6-(tert-butylsulfonyl)-7-methoxyimidazo[1,2-a]pyridin-3-yl)-2,5-difluoro-6-methoxyphenyl)propane-1-sulfonamide]
50 to 250 | 2.5 to 20 | – | – | CCCS(=O)(=O)Nc1cc(-c2cnc3cc(OC)c(S(=O)(=O)C(C)(C)C)cn23)cnc1OC [Example 265, N-(5-(6-(tert-butylsulfonyl)-7-methoxyimidazo[1,2-a]pyridin-3-yl)-2-methoxypyridin-3-yl)propane-1-sulfonamide]
250 to 1000 | 1 to 2.5 | – | – | CCCS(=O)(=O)Nc1cc(-c2cnc3cc(OC)c(S(=O)(=O)C(C)(C)C)cn23)cc(F)c1F [Example 266, N-(5-(6-(tert-butylsulfonyl)-7-methoxyimidazo[1,2-a]pyridin-3-yl)-2,3-difluorophenyl)propane-1-sulfonamide]
250 to 1000 | 1 to 2.5 | – | – | CCCS(=O)(=O)Nc1cc(-c2cnc3cc(OC)c(S(=O)(=O)C(C)(C)C)cn23)cc(OC)c1F [Example 267, N-(5-(6-(tert-butylsulfonyl)-7-methoxyimidazo[1,2-a]pyridin-3-yl)-2-fluoro-3-methoxyphenyl)propane-1-sulfonamide]
50 to 250 | 1 to 2.5 | – | – | CCCS(=O)(=O)Nc1cc(-c2cnc3cc(OC)c(S(=O)(=O)C(C)(C)C)cn23)cc(C)c1OC [Example 268, N-(5-(6-(tert-butylsulfonyl)-7-methoxyimidazo[1,2-a]pyridin-3-yl)-2-methoxy-3-methylphenyl)propane-1-sulfonamide]
250 to 1000 | 1 to 2.5 | – | – | CCCS(=O)(=O)Nc1cccc(-c2cnc3cc(OC)c(S(=O)(=O)C(C)(C)C)cn23)c1 [Example 269, N-(3-(6-(tert-butylsulfonyl)-7-methoxyimidazo[1,2-a]pyridin-3-yl)phenyl)propane-1-sulfonamide]
250 to 1000 | 1 to 2.5 | – | – | CCCS(=O)(=O)Nc1cc(-c2cnc3cc(OC)c(S(=O)(=O)C(C)(C)C)cn23)cc(F)c1OCC [Example 270, N-(5-(6-(tert-butylsulfonyl)-7-methoxyimidazo[1,2-a]pyridin-3-yl)-2-ethoxy-3-fluorophenyl)propane-1-sulfonamide]
< 50 | 1 to 2.5 | – | – | CCCS(=O)(=O)Nc1cc(-c2cnc3cc(OC)c(S(=O)(=O)C(C)(C)C)cn23)ccc1OC(F)F [Example 271, N-(5-(6-(tert-butylsulfonyl)-7-methoxyimidazo[1,2-a]pyridin-3-yl)-2-(difluoromethoxy)phenyl) propane-1-sulfonamide]
50 to 250 | < 1 | – | – | CCCS(=O)(=O)Nc1cc(-c2cnc3cc(OC)c(S(=O)(=O)C4CC4)cn23)cc(OC)c1OC [Example 274, N-(5-(6-(cyclopropylsulfonyl)-7-methoxyimidazo[1,2-a]pyridin-3-yl)-2,3-dimethoxyphenyl)propane-1-sulfonamide]
< 50 | < 1 | – | – | CCCS(=O)(=O)Nc1cc(-c2cnc3cc(OC)c(S(=O)(=O)C(C)(C)C)cn23)cc(F)c1OC [Example 275, N-(5-(6-(tert-butylsulfonyl)-7-methoxyimidazo[1,2-a]pyridin-3-yl)-3-fluoro-2-methoxyphenyl)propane-1-sulfonamide]
< 50 | 2.5 to 20 | – | – | COc1cc2ncc(-c3cccc(NS(=O)(=O)C(C)(C)C)c3)n2cc1S(=O)(=O)C(C)(C)C [Example 277, N-(3-(6-(tert-butylsulfonyl)-7-methoxyimidazo[1,2-a]pyridin-3-yl)phenyl)-2-methylpropane-2-sulfonamide]
< 50 | < 1 | – | – | COc1cc2ncc(-c3cc(F)c(OC)c(NS(=O)(=O)CC(C)C)c3)n2cc1S(=O)(=O)C(C)(C)C [Example 279, N-(5-(6-(tert-butylsulfonyl)-7-methoxyimidazo[1,2-a]pyridin-3-yl)-3-fluoro-2-methoxyphenyl)-2-methylpropane-1-sulfonamide]
